Source: ChEMBL document CHEMBL1201861, “Genomics of Drug Sensitity in Cancer screening data, Wellcome Trust Sanger Institute”

What was measured:
Assay in all cases: cells
RS4-11 = assay type: functional, cell-based, Homo sapiens; conditions: Homo sapiens, RS4-11;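 also: growth inhibition of RS4-11 cells, read out by a cell viability assay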
Description: SANGER: Inhibition of human RS4-11 cell growth in a cell viability assay.

L-428 = assay type: functional, cell-based, Homo sapiens; conditions: Homo sapiens, L-428
Description: SANGER: Inhibition of human L-428 cell growth in a cell viability assay.

Ramos-2G6-4C10 = assay type: functional, cell-based, Homo sapiens; conditions: Homo sapiens, Ramos-2G6-4C10;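 also: growth inhibition of the cell line, measured by a cell viability read-out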
Description: SANGER: Inhibition of human Ramos-2G6-4C10 cell growth in a cell viability assay.

GAK = assay type: functional, cell-based, Homo sapiens; conditions: Homo sapiens, GAK;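 also: cell growth inhibition read out by a cell viability assay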
Description: SANGER: Inhibition of human GAK cell growth in a cell viability assay.

CTB-1 = assay type: functional, cell-based, Homo sapiens; conditions: Homo sapiens, CTB-1
Description: SANGER: Inhibition of human CTB-1 cell growth in a cell viability assay.

HEL = assay type: functional, cell-based, Homo sapiens; conditions: Homo sapiens, HEL;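 also: growth inhibition of HEL cells, read out with a cell viability assay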
Description: SANGER: Inhibition of human HEL cell growth in a cell viability assay.

KLE = assay type: functional, cell-based; conditions: Homo sapiens;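 also: growth inhibition of human KLE cells, read out with a cell viability assay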
Description: SANGER: Inhibition of human KLE cell growth in a cell viability assay.

UACC-257 = assay type: functional, cell-based, Homo sapiens; conditions: Homo sapiens, UACC-257
Description: SANGER: Inhibition of human UACC-257 cell growth in a cell viability assay.

RKO = assay type: functional, cell-based, Homo sapiens; conditions: Homo sapiens, RKO;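 also: growth inhibition of human RKO cells, read out with a cell viability assay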
Description: SANGER: Inhibition of human RKO cell growth in a cell viability assay.

OCUB-M = assay type: functional, cell-based; conditions: Homo sapiens;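 also: growth inhibition of the cancer cell line, read out through a cell viability assay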
Description: SANGER: Inhibition of human OCUB-M cell growth in a cell viability assay.

MHH-NB-11 = assay type: functional, cell-based, Homo sapiens; conditions: Homo sapiens, MHH-NB-11;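 also: growth inhibition of human MHH-NB-11 cells, read out by a cell viability assay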
Description: SANGER: Inhibition of human MHH-NB-11 cell growth in a cell viability assay.

NB5 = assay type: functional, cell-based, Homo sapiens; conditions: Homo sapiens, NB5;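 also: growth inhibition of NB5 cells, read out as cell viability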
Description: SANGER: Inhibition of human NB5 cell growth in a cell viability assay.

Becker = assay type: functional, cell-based, Homo sapiens; conditions: Homo sapiens, Becker;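 also: growth inhibition of Becker cells, read out with a cell viability assay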
Description: SANGER: Inhibition of human Becker cell growth in a cell viability assay.

no-10 = assay type: functional, cell-based, Homo sapiens; conditions: Homo sapiens;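 also: growth inhibition of no-10 cells, read out with a cell viability assay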
Description: SANGER: Inhibition of human no-10 cell growth in a cell viability assay.

NCI-H1581 = assay type: functional, cell-based, Homo sapiens; conditions: Homo sapiens, NCI-H1581;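 also: cell growth inhibition read out by a viability assay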
Description: SANGER: Inhibition of human NCI-H1581 cell growth in a cell viability assay.

COLO-668 = assay type: functional, cell-based, Homo sapiens; conditions: Homo sapiens, COLO-668
Description: SANGER: Inhibition of human COLO-668 cell growth in a cell viability assay.

NCI-H1355 = assay type: functional, cell-based, Homo sapiens; conditions: Homo sapiens, NCI-H1355;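 also: growth inhibition of human NCI-H1355 cells, read out by a cell viability assay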
Description: SANGER: Inhibition of human NCI-H1355 cell growth in a cell viability assay.

A498 = assay type: functional, cell-based, Homo sapiens; conditions: Homo sapiens, A498;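 also: growth inhibition of human A498 cells, read out with a cell viability assay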
Description: SANGER: Inhibition of human A498 cell growth in a cell viability assay.

IST-MES1 = assay type: functional, cell-based, Homo sapiens; conditions: Homo sapiens, IST-MES1;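 also: growth inhibition of IST-MES1 cells, measured with a cell viability assay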
Description: SANGER: Inhibition of human IST-MES1 cell growth in a cell viability assay.

HH = assay type: functional, cell-based, Homo sapiens; conditions: Homo sapiens, HH
Description: SANGER: Inhibition of human HH cell growth in a cell viability assay.

NCI-H1304 = assay type: functional, cell-based, Homo sapiens; conditions: Homo sapiens, NCI-H1304;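 also: growth inhibition of the cancer cell line, measured in a cell viability assay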
Description: SANGER: Inhibition of human NCI-H1304 cell growth in a cell viability assay.

C8166 = assay type: functional, cell-based, Homo sapiens; conditions: Homo sapiens, C8166;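 also: growth inhibition of human C8166 cells measured by a cell viability assay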
Description: SANGER: Inhibition of human C8166 cell growth in a cell viability assay.

SW 962 = assay type: functional, cell-based, Homo sapiens; conditions: Homo sapiens, SW 962;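 also: growth inhibition of human SW962 cells, read out by a cell viability assay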
Description: SANGER: Inhibition of human SW962 cell growth in a cell viability assay.

K562 = assay type: functional, cell-based, Homo sapiens; conditions: Homo sapiens, K562
Description: SANGER: Inhibition of human K-562 cell growth in a cell viability assay.

ATN-1 = assay type: functional, cell-based, Homo sapiens; conditions: Homo sapiens, ATN-1;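 also: growth inhibition of human ATN-1 cells, read out with a cell viability assay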
Description: SANGER: Inhibition of human ATN-1 cell growth in a cell viability assay.

EW-11 = assay type: functional, cell-based, Homo sapiens; conditions: Homo sapiens, EW-11;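 also: growth inhibition of human EW-11 cells, measured with a cell viability assay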
Description: SANGER: Inhibition of human EW-11 cell growth in a cell viability assay.

SHP77 = assay type: functional, cell-based, Homo sapiens, SHP-77; conditions: Homo sapiens, SHP77;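 also: growth inhibition of human SHP-77 cells measured by a cell viability assay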
Description: SANGER: Inhibition of human SHP-77 cell growth in a cell viability assay.

MPP-89 = assay type: functional, cell-based, Homo sapiens; conditions: Homo sapiens, MPP-89;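 also: growth inhibition of human MPP-89 cells, read out with a cell viability assay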
Description: SANGER: Inhibition of human MPP-89 cell growth in a cell viability assay.

TGW = assay type: functional, cell-based, Homo sapiens; conditions: Homo sapiens, TGW;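 also: growth inhibition of human TGW cells, read out with a cell viability assay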
Description: SANGER: Inhibition of human TGW cell growth in a cell viability assay.

MSTO-211H = assay type: functional, cell-based, Homo sapiens; conditions: Homo sapiens, MSTO-211H
Description: SANGER: Inhibition of human MSTO-211H cell growth in a cell viability assay.

LB1047-RCC = assay type: functional, cell-based, Homo sapiens; conditions: Homo sapiens, LB1047-RCC;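 also: inhibition of cell growth, determined with a cell viability assay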
Description: SANGER: Inhibition of human LB1047-RCC cell growth in a cell viability assay.

COLO-320-HSR = assay type: functional, cell-based, Homo sapiens; conditions: Homo sapiens, COLO-320-HSR;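 also: growth inhibition of COLO-320-HSR cells, determined with a cell viability assay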
Description: SANGER: Inhibition of human COLO-320-HSR cell growth in a cell viability assay.

A388 = assay type: functional, cell-based; conditions: Homo sapiens;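 also: growth inhibition of human A388 cells, read out with a cell viability assay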
Description: SANGER: Inhibition of human A388 cell growth in a cell viability assay.

TGBC24TKB = assay type: functional, cell-based; conditions: Homo sapiens;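 also: growth inhibition of human TGBC24TKB cells, read out with a cell viability assay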
Description: SANGER: Inhibition of human TGBC24TKB cell growth in a cell viability assay.

LS-411N = assay type: functional, cell-based, Homo sapiens; conditions: Homo sapiens, LS-411N
NEC8 = assay type: functional, cell-based, Homo sapiens; conditions: Homo sapiens, NEC8;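 also: growth inhibition of human NEC8 cells, read out by a cell viability assay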
Description: SANGER: Inhibition of human NEC8 cell growth in a cell viability assay.

A253 cell line = assay type: functional, cell-based, Homo sapiens; conditions: Homo sapiens, A253;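 also: growth inhibition of A253 cells, read out with a cell viability assay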
Description: SANGER: Inhibition of human A253 cell growth in a cell viability assay.

LB996-RCC = assay type: functional, cell-based, Homo sapiens; conditions: Homo sapiens, LB996-RCC
Description: SANGER: Inhibition of human LB996-RCC cell growth in a cell viability assay.

DEL = assay type: functional, cell-based, Homo sapiens; conditions: Homo sapiens, DEL;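 also: growth inhibition of the human DEL cell line, read out with a cell viability assay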
Description: SANGER: Inhibition of human DEL cell growth in a cell viability assay.

NCI-H209 = assay type: functional, cell-based, Homo sapiens; conditions: Homo sapiens, NCI-H209;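 also: growth inhibition of human NCI-H209 cells, measured by a cell viability assay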
Description: SANGER: Inhibition of human NCI-H209 cell growth in a cell viability assay.

EW-1 = assay type: functional, cell-based, Homo sapiens; conditions: Homo sapiens, EW-1
Description: SANGER: Inhibition of human EW-1 cell growth in a cell viability assay.

ALL-PO = assay type: functional, cell-based, Homo sapiens; conditions: Homo sapiens, ALL-PO;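 also: growth inhibition of ALL-PO cells, read out by a cell viability assay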
Description: SANGER: Inhibition of human ALL-PO cell growth in a cell viability assay.

RPMI-8866 = assay type: functional, cell-based, Homo sapiens; conditions: Homo sapiens, RPMI-8866
Description: SANGER: Inhibition of human RPMI-8866 cell growth in a cell viability assay.

SK-MEL-1 = assay type: functional, cell-based, Homo sapiens; conditions: Homo sapiens, SK-MEL-1;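 also: growth inhibition of human SK-MEL-1 cells, read out by a cell viability assay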
Description: SANGER: Inhibition of human SK-MEL-1 cell growth in a cell viability assay.

BB49-HNC = assay type: functional, cell-based, Homo sapiens; conditions: Homo sapiens, BB49-HNC;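 also: cell viability assay read-out, reported as inhibition of BB49-HNC cell growth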
Description: SANGER: Inhibition of human BB49-HNC cell growth in a cell viability assay.

NH-12 = assay type: functional, cell-based, Homo sapiens; conditions: Homo sapiens, NH-12;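 also: growth inhibition of NH-12 cells, read out with a cell viability assay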
Description: SANGER: Inhibition of human NH-12 cell growth in a cell viability assay.

For `C=CC(=O)N1CCCC(Nc2nc(Nc3ccc(N(C)C(=O)CC)cc3)nc3[nH]cnc23)C1` (stereo not drawn), the IC50 (RS4-11) was greater than 10.2 µM, the IC50 (L-428) was greater than 10.2 µM and the IC50 (Ramos-2G6-4C10) was greater than 10.2 µM. It also gave an IC50 (GAK) greater than 10.2 µM, an IC50 (CTB-1) greater than 10.2 µM and an IC50 (HEL) greater than 10.2 µM. It also gave an IC50 (KLE) greater than 10.2 µM, an IC50 (UACC-257) greater than 10.2 µM and an IC50 (RKO) greater than 10.2 µM. The IC50 (OCUB-M) was 2.1 µM, the IC50 (MHH-NB-11) was greater than 10.2 µM and the IC50 (NB5) was greater than 10.2 µM. For the same compound, the IC50 (Becker) was greater than 10.2 µM, the IC50 (no-10) was greater than 10.2 µM and the IC50 (NCI-H1581) was greater than 10.2 µM. For the same compound, the IC50 (COLO-668) was greater than 10.2 µM, the IC50 (NCI-H1355) was greater than 10.2 µM and the IC50 (A498) was greater than 10.2 µM. It also gave an IC50 (IST-MES1) greater than 10.2 µM, an IC50 (HH) greater than 10.2 µM and an IC50 (NCI-H1304) greater than 10.2 µM. The IC50 (C8166) was greater than 10.2 µM, the IC50 (SW 962) was 5.16 µM and the IC50 (K562) was greater than 10.2 µM. The IC50 (ATN-1) was greater than 10.2 µM, the IC50 (EW-11) was greater than 10.2 µM and the IC50 (SHP77) was greater than 10.2 µM. For the same compound, the IC50 (MPP-89) was greater than 10.2 µM, the IC50 (TGW) was greater than 10.2 µM and the IC50 (MSTO-211H) was greater than 10.2 µM. The IC50 (LB1047-RCC) was greater than 10.2 µM, the IC50 (COLO-320-HSR) was greater than 10.2 µM and the IC50 (A388) was 7.41 µM. It also gave an IC50 (TGBC24TKB) greater than 10.2 µM, an IC50 (LS-411N) greater than 10.2 µM and an IC50 (NEC8) greater than 10.2 µM. It also gave an IC50 (A253 cell line) greater than 10.2 µM, an IC50 (LB996-RCC) greater than 10.2 µM and an IC50 (DEL) greater than 10.2 µM. For the same compound, the IC50 (NCI-H209) was greater than 10.2 µM, the IC50 (EW-1) was greater than 10.2 µM and the IC50 (ALL-PO) was greater than 10.2 µM. It also gave an IC50 (RPMI-8866) greater than 10.2 µM, an IC50 (SK-MEL-1) greater than 10.2 µM and an IC50 (BB49-HNC) greater than 10.2 µM. For the same compound, the IC50 (NH-12) was greater than 10.2 µM.
`COc1ccc(N(C(=O)Oc2c(C)cccc2C)c2ccnc(Nc3ccc(N4CCN(C)CC4)cc3)n2)c(OC)c1` gave an IC50 (RS4-11) greater than 5.12 µM, an IC50 (L-428) greater than 5.12 µM and an IC50 (Ramos-2G6-4C10) greater than 5.12 µM. The IC50 (GAK) was greater than 5.12 µM, the IC50 (CTB-1) was greater than 5.12 µM and the IC50 (HEL) was greater than 5.12 µM. For the same compound, the IC50 (KLE) was 1.86 µM, the IC50 (UACC-257) was greater than 5.12 µM and the IC50 (RKO) was greater than 5.12 µM. It also gave an IC50 (OCUB-M) greater than 5.12 µM, an IC50 (MHH-NB-11) greater than 5.12 µM and an IC50 (NB5) greater than 5.12 µM. The IC50 (Becker) was 0.0638 µM, the IC50 (no-10) was greater than 5.12 µM and the IC50 (NCI-H1581) was greater than 5.12 µM. It also gave an IC50 (COLO-668) greater than 5.12 µM, an IC50 (NCI-H1355) of 4.88 µM and an IC50 (A498) of 0.189 µM. The IC50 (IST-MES1) was 0.357 µM, the IC50 (HH) was greater than 5.12 µM and the IC50 (NCI-H1304) was greater than 5.12 µM. It also gave an IC50 (C8166) greater than 5.12 µM, an IC50 (SW 962) of 1.34 µM and an IC50 (K562) of less than 0.02 µM. It also gave an IC50 (ATN-1) greater than 5.12 µM, an IC50 (EW-11) greater than 5.12 µM and an IC50 (SHP77) greater than 5.12 µM. For the same compound, the IC50 (MPP-89) was 0.0823 µM, the IC50 (TGW) was greater than 5.12 µM and the IC50 (MSTO-211H) was greater than 5.12 µM. For the same compound, the IC50 (LB1047-RCC) was 0.0759 µM, the IC50 (COLO-320-HSR) was greater than 5.12 µM and the IC50 (A388) was greater than 5.12 µM. For the same compound, the IC50 (TGBC24TKB) was 1.04 µM, the IC50 (LS-411N) was greater than 5.12 µM and the IC50 (NEC8) was greater than 5.12 µM. It also gave an IC50 (A253 cell line) greater than 5.12 µM, an IC50 (LB996-RCC) of 0.0567 µM and an IC50 (DEL) greater than 5.12 µM. The IC50 (NCI-H209) was greater than 5.12 µM, the IC50 (EW-1) was greater than 5.12 µM and the IC50 (ALL-PO) was greater than 5.12 µM. The IC50 (RPMI-8866) was greater than 5.12 µM, the IC50 (SK-MEL-1) was greater than 5.12 µM and the IC50 (BB49-HNC) was greater than 5.12 µM. The IC50 (NH-12) was greater than 5.12 µM.
Work on `NC(=O)c1cccc(-c2cc(Nc3ccc(OC(F)(F)F)cc3)ncn2)c1` yielded an IC50 (RS4-11) greater than 1.28 µM, an IC50 (L-428) greater than 1.28 µM and an IC50 (Ramos-2G6-4C10) greater than 1.28 µM. It also gave an IC50 (GAK) greater than 1.28 µM, an IC50 (CTB-1) greater than 1.28 µM and an IC50 (HEL) greater than 1.28 µM. It also gave an IC50 (KLE) greater than 1.28 µM, an IC50 (UACC-257) greater than 1.28 µM and an IC50 (RKO) greater than 1.28 µM. It also gave an IC50 (OCUB-M) greater than 1.28 µM, an IC50 (MHH-NB-11) greater than 1.28 µM and an IC50 (NB5) greater than 1.28 µM. For the same compound, the IC50 (Becker) was greater than 1.28 µM, the IC50 (no-10) was greater than 1.28 µM and the IC50 (NCI-H1581) was greater than 1.28 µM. It also gave an IC50 (COLO-668) greater than 1.28 µM, an IC50 (NCI-H1355) greater than 1.28 µM and an IC50 (A498) greater than 1.28 µM. For the same compound, the IC50 (IST-MES1) was greater than 1.28 µM, the IC50 (HH) was greater than 1.28 µM and the IC50 (NCI-H1304) was greater than 1.28 µM. For the same compound, the IC50 (C8166) was greater than 1.28 µM, the IC50 (SW 962) was greater than 1.28 µM and the IC50 (K562) was 0.361 µM. The IC50 (ATN-1) was greater than 1.28 µM, the IC50 (EW-11) was greater than 1.28 µM and the IC50 (SHP77) was greater than 1.28 µM. For the same compound, the IC50 (MPP-89) was greater than 1.28 µM, the IC50 (TGW) was greater than 1.28 µM and the IC50 (MSTO-211H) was greater than 1.28 µM. For the same compound, the IC50 (LB1047-RCC) was greater than 1.28 µM, the IC50 (COLO-320-HSR) was greater than 1.28 µM and the IC50 (A388) was greater than 1.28 µM. For the same compound, the IC50 (TGBC24TKB) was greater than 1.28 µM, the IC50 (LS-411N) was greater than 1.28 µM and the IC50 (NEC8) was greater than 1.28 µM. The IC50 (A253 cell line) was greater than 1.28 µM, the IC50 (LB996-RCC) was greater than 1.28 µM and the IC50 (DEL) was greater than 1.28 µM. For the same compound, the IC50 (NCI-H209) was greater than 1.28 µM, the IC50 (EW-1) was greater than 1.28 µM and the IC50 (ALL-PO) was greater than 1.28 µM. For the same compound, the IC50 (RPMI-8866) was greater than 1.28 µM, the IC50 (SK-MEL-1) was greater than 1.28 µM and the IC50 (BB49-HNC) was greater than 1.28 µM. The IC50 (NH-12) was greater than 1.28 µM.
